Source: ChEMBL document CHEMBL1201862, “PubChem BioAssay data set” (2004)
The source made the active and inactive calls.

Tests used:
[1] = target: T1, Corticotropin-releasing factor receptor 2/Corticotropin-releasing factor-binding protein (Homo sapiens, UniProt P24387+Q13324); assay: Dose Response confirmation of uHTS hits for small molecule antagonists of the CRF-binding protein and CRF-R2 receptor complex.; type: functional; details: read-out: IC50_Mean
T1 sequence (Q13324 whole entry): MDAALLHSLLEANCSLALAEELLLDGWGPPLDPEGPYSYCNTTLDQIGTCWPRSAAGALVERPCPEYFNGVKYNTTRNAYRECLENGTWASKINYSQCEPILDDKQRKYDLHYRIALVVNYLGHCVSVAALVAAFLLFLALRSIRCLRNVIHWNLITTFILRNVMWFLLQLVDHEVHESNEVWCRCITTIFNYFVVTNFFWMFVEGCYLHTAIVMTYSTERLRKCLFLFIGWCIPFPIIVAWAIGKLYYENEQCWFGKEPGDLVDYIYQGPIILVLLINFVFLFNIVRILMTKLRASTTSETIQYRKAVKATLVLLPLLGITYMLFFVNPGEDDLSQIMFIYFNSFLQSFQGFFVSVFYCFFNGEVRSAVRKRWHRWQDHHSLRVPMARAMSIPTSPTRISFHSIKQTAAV
T1 sequence (P24387 whole entry): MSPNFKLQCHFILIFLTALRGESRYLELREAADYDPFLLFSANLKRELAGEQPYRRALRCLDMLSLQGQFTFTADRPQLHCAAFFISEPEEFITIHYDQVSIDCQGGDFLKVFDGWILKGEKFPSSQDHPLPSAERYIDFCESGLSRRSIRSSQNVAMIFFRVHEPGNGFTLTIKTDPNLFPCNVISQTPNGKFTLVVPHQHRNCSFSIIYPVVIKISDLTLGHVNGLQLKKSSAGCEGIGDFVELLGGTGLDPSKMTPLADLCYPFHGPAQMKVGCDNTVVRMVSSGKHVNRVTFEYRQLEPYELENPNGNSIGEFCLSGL

[2] = target: T1, Corticotropin-releasing factor receptor 2/Corticotropin-releasing factor-binding protein; assay: activators of CRF receptor 2 with binding protein – uHTS hits, confirmation (AID 602473); type: functional; details: read-out: EC50_Mean
Cytochrome P450 1A2 = target: T2, Cytochrome P450 1A2 (Homo sapiens, UniProt P05177);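 also: PubChem cytochrome P450 panel assay, CYP1A2 panel member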
T2 sequence (P05177 whole entry): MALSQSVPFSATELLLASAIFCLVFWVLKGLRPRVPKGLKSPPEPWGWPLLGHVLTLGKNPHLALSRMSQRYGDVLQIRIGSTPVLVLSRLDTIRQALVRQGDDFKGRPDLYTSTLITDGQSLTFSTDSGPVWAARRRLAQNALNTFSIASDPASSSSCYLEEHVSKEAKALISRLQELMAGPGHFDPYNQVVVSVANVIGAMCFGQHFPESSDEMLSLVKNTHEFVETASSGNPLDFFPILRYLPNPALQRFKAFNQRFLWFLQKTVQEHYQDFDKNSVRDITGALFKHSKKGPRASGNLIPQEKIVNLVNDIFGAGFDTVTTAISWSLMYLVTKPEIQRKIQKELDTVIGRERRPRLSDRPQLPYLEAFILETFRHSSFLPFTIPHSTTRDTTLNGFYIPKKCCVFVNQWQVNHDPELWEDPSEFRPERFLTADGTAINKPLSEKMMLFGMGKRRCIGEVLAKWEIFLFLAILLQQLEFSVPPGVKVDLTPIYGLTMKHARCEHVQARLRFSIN

[3] = tested on: Streptococcus sp. 'group A'; assay: growth inhibition of control SK(-) GAS strain, dose response, counter-screen for streptokinase expression inhibitor project, luminescence, kanamycin, BacTiterGlo, confirmation (AID 1900); type: functional, organism-based
Streptokinase A = target: T3, Streptokinase A (Streptococcus pyogenes serotype M1, UniProt P10520); assay: S. pyogenes streptokinase expression inhibitors, potency, dose response, plasminogen activation absorbance, OD405 (AID 1914); type: functional, Streptococcus pyogenes M1 GAS;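 also: secreted streptokinase activity via plasminogen activation per viability signal from cell pellet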
T3 sequence (P10520 whole entry): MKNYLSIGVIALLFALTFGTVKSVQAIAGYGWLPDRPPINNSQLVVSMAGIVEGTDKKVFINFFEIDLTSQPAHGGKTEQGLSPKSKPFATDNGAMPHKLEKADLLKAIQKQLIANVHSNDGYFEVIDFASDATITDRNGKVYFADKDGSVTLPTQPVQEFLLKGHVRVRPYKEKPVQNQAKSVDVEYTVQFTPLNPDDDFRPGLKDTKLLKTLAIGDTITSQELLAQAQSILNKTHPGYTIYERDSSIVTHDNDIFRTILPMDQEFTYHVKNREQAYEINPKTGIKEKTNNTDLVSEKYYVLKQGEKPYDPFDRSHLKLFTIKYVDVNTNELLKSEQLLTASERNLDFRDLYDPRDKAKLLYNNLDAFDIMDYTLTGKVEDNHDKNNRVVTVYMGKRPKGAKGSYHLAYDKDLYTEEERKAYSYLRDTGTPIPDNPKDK

Streptococcus = assay: Group A Streptococcus viability loss, dose response, counter-screen for streptokinase expression inhibitor project, luminescence, BacTiterGlo (AID 1915); type: functional, organism-based;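 also: potency for reduction of bacterial viability or growth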
[4] = Luminescence Cell-Based Dose Confirmation HTS to Identify Inhibitors of Platelet Dense Granule Release. [Related pubchem assays: 1663 (Primary HTS), 1678 (Summary of Project)]; type: functional
[5] = target: Luciferin 4-monooxygenase (Photinus pyralis, UniProt P08659); assay: firefly luciferase enzyme inhibitors, dose response, biochemical, luminescence (AID 1891)
Sequence of Luciferin 4-monooxygenase (P08659 whole entry): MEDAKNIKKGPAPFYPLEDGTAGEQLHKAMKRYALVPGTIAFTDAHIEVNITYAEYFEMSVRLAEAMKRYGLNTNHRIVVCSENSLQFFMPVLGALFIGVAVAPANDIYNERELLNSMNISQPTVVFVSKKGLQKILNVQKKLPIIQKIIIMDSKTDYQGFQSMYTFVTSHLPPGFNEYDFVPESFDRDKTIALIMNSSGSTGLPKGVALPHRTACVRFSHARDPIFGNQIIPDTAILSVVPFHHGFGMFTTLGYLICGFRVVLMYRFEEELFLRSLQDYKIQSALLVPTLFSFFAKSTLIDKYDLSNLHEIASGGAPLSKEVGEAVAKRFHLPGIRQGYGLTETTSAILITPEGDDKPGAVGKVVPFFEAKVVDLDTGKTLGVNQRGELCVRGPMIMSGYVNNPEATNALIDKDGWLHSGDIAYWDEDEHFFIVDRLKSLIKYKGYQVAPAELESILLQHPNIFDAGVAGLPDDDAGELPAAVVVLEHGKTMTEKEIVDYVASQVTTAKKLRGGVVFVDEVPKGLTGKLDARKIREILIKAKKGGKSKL

Cytochrome P450 2C19 = Cytochrome P450 2C19 (Homo sapiens, UniProt P33261); assay: Cytochrome panel assay with activity outcomes. Panel member name: p450-cyp2c19 Compounds with AC50 equal or less than 10 uM are considered active; type: functional
Sequence of Cytochrome P450 2C19 (P33261 whole entry): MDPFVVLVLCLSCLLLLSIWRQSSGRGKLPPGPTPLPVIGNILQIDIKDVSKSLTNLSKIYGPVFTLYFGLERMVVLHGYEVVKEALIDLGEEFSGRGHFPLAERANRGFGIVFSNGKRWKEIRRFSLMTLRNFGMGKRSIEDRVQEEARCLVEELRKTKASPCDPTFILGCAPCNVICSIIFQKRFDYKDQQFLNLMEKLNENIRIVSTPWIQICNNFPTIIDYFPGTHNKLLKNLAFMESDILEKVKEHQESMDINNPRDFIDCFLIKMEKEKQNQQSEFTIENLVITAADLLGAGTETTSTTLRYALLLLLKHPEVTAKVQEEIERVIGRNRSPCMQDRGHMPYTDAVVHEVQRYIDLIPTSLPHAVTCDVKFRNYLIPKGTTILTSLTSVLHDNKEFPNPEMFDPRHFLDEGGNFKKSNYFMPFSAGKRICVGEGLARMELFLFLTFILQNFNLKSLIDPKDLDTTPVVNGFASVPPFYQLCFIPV

Cytochrome P450 2D6 = Cytochrome P450 2D6 (Homo sapiens, UniProt P10635);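 also: CYP2D6 member of a cytochrome P450 panel assay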
Sequence of Cytochrome P450 2D6 (P10635 whole entry): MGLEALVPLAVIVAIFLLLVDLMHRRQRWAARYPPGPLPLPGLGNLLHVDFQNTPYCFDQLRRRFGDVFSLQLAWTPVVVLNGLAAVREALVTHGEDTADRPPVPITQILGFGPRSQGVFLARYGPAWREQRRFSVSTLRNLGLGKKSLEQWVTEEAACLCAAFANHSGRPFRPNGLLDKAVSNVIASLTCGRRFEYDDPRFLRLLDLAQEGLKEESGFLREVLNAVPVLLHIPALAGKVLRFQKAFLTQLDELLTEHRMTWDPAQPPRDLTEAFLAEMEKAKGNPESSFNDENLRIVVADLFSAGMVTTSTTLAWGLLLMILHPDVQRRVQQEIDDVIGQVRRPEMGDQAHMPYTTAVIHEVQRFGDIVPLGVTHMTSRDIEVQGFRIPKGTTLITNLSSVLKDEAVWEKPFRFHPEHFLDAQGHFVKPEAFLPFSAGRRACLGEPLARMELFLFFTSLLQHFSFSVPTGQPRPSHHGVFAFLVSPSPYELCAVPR

Cytochrome P450 2C9 = Cytochrome P450 2C9 (Homo sapiens, UniProt P11712)
Sequence of Cytochrome P450 2C9 (P11712 whole entry): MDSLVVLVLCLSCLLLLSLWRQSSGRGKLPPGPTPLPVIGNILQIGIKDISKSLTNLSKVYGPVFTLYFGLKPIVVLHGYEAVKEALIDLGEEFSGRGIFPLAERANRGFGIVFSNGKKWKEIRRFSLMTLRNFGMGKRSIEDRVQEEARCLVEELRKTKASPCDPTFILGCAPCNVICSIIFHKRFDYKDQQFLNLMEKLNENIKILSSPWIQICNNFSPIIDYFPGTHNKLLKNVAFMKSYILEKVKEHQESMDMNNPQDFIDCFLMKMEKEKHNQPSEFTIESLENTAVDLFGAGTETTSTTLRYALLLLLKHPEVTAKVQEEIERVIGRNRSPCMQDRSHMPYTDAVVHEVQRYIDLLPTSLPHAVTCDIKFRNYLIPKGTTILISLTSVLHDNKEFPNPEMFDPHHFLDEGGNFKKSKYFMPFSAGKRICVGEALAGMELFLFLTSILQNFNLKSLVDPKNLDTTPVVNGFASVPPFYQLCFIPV

[6] = cytotoxicity toward NIH3T3 fibroblasts, dose response, counter-screen, cell-based, ATP luminescence, mouse fibroblasts (AID 2010); type: functional;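 also: cells exposed to compound for about 90 hours before reading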
[7] = inhibitors of intracellular T. cruzi replication, confirmation, NIH3T3 host cells, beta-gal luminescence (AID 2044); type: functional, cell-based;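 also: intracellular parasites grown in NIH/3T3 mouse fibroblasts as host cells; luminescent beta-galactosidase reporter signal from transgenic T. cruzi replicating inside host cells; inhibitors lower the luminescence signal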

S=C(NCc1ccc(Cl)c(Cl)c1)Nc1ccc2c(c1)OCO2
IC50 [1]: > 47.1 µM (inactive) | EC50 [2]: > 53 µM (inactive)

N[C@@H](CCCCP(=O)(O)O)C(=O)O
AC50 (Cytochrome P450 1A2): 31.6 µM (inconclusive)

CCC(=O)Nc1nc2ccccc2n1Cc1ccccc1C
EC50 [3]: 2.29 µM (active) | EC50 (Streptokinase A): > 150 µM (not active) | EC50 (Streptococcus): > 150 µM (not active)

CC(C(=O)NCCN1CCOCC1)(c1ccccc1)c1ccccc1
IC50 [1]: > 47.1 µM (inactive) | EC50 [2]: > 53 µM (inactive)

Clc1cccc(Cl)c1C1Nc2cccc3cccc(c23)N1
EC50 [3]: 5.07 µM (active) | EC50 (Streptokinase A): > 50 µM (not active) | EC50 (Streptococcus): 19.1 µM (active)

NC(=O)NC(=O)COC(=O)c1ccc2c(c1)C(=O)N(Cc1ccccc1)C2=O
EC50 [4]: > 112 µM (not active) | EC50 [5]: > 112 µM (not active)

O=C(CCOc1ccccc1)Nc1ccc([N+](=O)[O-])cc1
IC50 [1]: > 47.1 µM (inactive) | EC50 [2]: > 53 µM (inactive)

Cc1ccc(C(=O)NC2CCCC2)s1
EC50 [3]: > 150 µM (not active) | EC50 (Streptokinase A): > 150 µM (not active) | EC50 (Streptococcus): > 150 µM (not active)

O=[N+]([O-])c1cc([As](=O)(O)O)ccc1O [ROXARSONE]
AC50 (Cytochrome P450 2C19): inconclusive

Cc1c(C(=O)N2CCCC2)sc(NC(=O)c2ccc(Cl)cc2)c1C#N
EC50 [4]: > 112 µM (not active) | EC50 [5]: > 112 µM (not active)

CS(=O)(=O)N1CCC2(CC1)CN(Cc1nccs1)C2
AC50 (Cytochrome P450 1A2): 6.31 µM (inconclusive)

CC1=CC(C)(C)n2c(O)c(N=N)c3c(C)c(C)cc1c32
EC50 [3]: 8.93 µM (active) | EC50 (Streptokinase A): 16.3 µM (active) | EC50 (Streptococcus): > 150 µM (not active)

Cc1ccc(Nc2ncccc2C(=O)NCc2cccs2)c(C)c1
AC50 (Cytochrome P450 2D6): 25.1 µM (inconclusive) | AC50 (Cytochrome P450 2C19; read-out: AC50): 7.08 µM (inconclusive)

CCOC(=O)CCCNC(=O)c1cncc(Br)c1
AC50 (Cytochrome P450 2C19; read-out: AC50): 39.8 µM (inconclusive)

Cn1c(=O)oc2cc(S(=O)(=O)N3CCN(c4ccc(F)cc4)CC3)ccc21
EC50 [4]: > 112 µM (not active) | EC50 [5]: > 112 µM (not active)

CCNC(=O)C1OC(n2cnc3c(N)ncnc32)C(O)C1O (configuration not stated)
EC50 [4]: < 0.088 µM (active)

O=C(CN1C(=O)CCC1=O)Nc1nc(-c2cccs2)cs1
EC50 [4]: > 112 µM (not active) | EC50 [5]: > 112 µM (not active)

O=C(O)c1cc2cc(Cl)ccc2oc1=O
AC50 (Cytochrome P450 1A2): 0.0251 µM (inconclusive) | AC50 (Cytochrome P450 2C9): 0.00562 µM (inconclusive)

O=C(O)c1ccc(N2CCCCS2(=O)=O)cc1
EC50 [3]: > 150 µM (not active) | EC50 (Streptokinase A): > 150 µM (not active) | EC50 (Streptococcus): > 150 µM (not active)

COc1ccc2c(c1)/C(=C/c1cc(OC)c(OC)c(OC)c1)C(=O)N2
IC50 [1]: > 47.1 µM (inactive) | EC50 [2]: > 53 µM (inactive)

O=C(Nc1cc(Br)ccc1O)c1cc(-c2ccc3c(c2)OCO3)on1
IC50 [1]: > 47.1 µM (inactive) | EC50 [2]: > 53 µM (inactive)

CCCCCCCCCOC(=O)C[n+]1csc(CCO)c1C
IC50 [1]: > 47.1 µM (inactive) | EC50 [2]: > 53 µM (inactive)

Cc1ccc(CNC(=O)CCNC(=O)Cn2ccc3ccccc3c2=O)cc1
IC50 [1]: > 47.1 µM (inactive) | EC50 [2]: > 53 µM (inactive)

CC(C)S(=O)(=O)c1csc(C(=O)Nc2ccc(F)cc2)c1N
EC50 [4]: < 0.701 µM (active) | EC50 [5]: 2.33 µM (active)

CC1CCN(c2nc(N3CCCCC3)nc(N3CCCCC3)n2)CC1
EC50 [3]: 13.7 µM (active) | EC50 (Streptokinase A): 33.2 µM (active) | EC50 (Streptococcus): > 150 µM (not active)

Cn1cc(S(=O)(=O)N2CCc3ccccc32)cc1C(=O)Nc1ccc(Cl)cc1
EC50 [4]: > 112 µM (not active) | EC50 [5]: > 112 µM (not active)

COc1ccc(-c2nc3cnc(N(C)C)nc3n(CCc3ccccc3)c2=O)cc1
AC50 (Cytochrome P450 1A2): 1.26 µM (inconclusive)

N#CCCn1c(=O)c(-c2ccc(F)cc2)nc2cnc(N3CCOCC3)nc21
AC50 (Cytochrome P450 1A2): 20 µM (inconclusive)

O=C1CSC(c2cn(-c3ccccc3)nc2-c2ccc3c(c2)OCCO3)N1CCN1CCOCC1 (configuration not stated)
EC50 [4]: > 112 µM (not active) | EC50 [5]: > 112 µM (not active)

CC(=O)COc1ccc2c(C)c(C)c(=O)oc2c1
AC50 (Cytochrome P450 2C19; read-out: AC50): 0.178 µM (inconclusive)

CCOCc1cc(CN2CCCC(CNC(=O)c3ccco3)C2)ccc1OC (configuration not stated)
IC50 [1]: > 47.1 µM (inactive) | EC50 [2]: > 53 µM (inactive)

CCN1C(=O)C(=O)N(Cc2ccc(OC)c(F)c2)C1=O
IC50 [1]: > 47.1 µM (inactive) | EC50 [2]: > 53 µM (inactive)

N[C@@]1(C(=O)O)CN[C@H](C(=O)O)C1
AC50 (Cytochrome P450 1A2): 31.6 µM (inconclusive)

COc1ccc(-c2ccc(CN3C(C)C(=O)N(Cc4cn(Cc5ccco5)nn4)CCS3(=O)=O)cc2)cc1 (configuration not stated)
IC50 [1]: > 47.1 µM (inactive) | EC50 [2]: > 53 µM (inactive)

C=CCc1cc(/C=C2\C(=N)N3N=C(CC(=O)N4CCOCC4)SC3=NC2=O)cc(OC)c1O
EC50 [2]: 6.76 µM (active)

CSCCC(NC(=O)c1cccc(C)c1)C(=O)NNC(=O)c1cccs1 (configuration not stated)
IC50 [1]: > 47.1 µM (inactive) | EC50 [2]: > 53 µM (inactive)

O=C(NC(Cc1c[nH]c2ccccc12)C(=O)N/N=C/c1cccc2ccccc12)c1cccs1 (configuration not stated)
EC50 [3]: 5.65 µM (active) | EC50 (Streptokinase A): > 150 µM (not active) | EC50 (Streptococcus): 39.5 µM (active)

c1csc(-c2csc3nc(CN4CCOCC4)nc(NCc4ccc5c(c4)OCO5)c23)c1
EC50 [3]: 12.3 µM (active) | EC50 [6]: > 60 µM (not active) | EC50 (Streptokinase A): 59.9 µM (active) | EC50 [7]: 1.31 µM (active) | EC50 (Streptococcus): > 150 µM (not active)

CCCN(CC(=O)Nc1ccccc1OC)C(=O)c1ccncc1
EC50 [3]: > 150 µM (not active) | EC50 (Streptokinase A): > 150 µM (not active) | EC50 (Streptococcus): > 150 µM (not active)

CCOc1cc(CNCCN2CCOCC2)ccc1OCc1ccccc1Cl
EC50 [6]: 21.1 µM (active) | EC50 [7]: 0.125 µM (active) | EC50 [4]: > 112 µM (not active) | EC50 [5]: > 112 µM (not active)

COc1ccc(N2C(=O)c3cccc4cccc(c34)C2=O)cc1
EC50 [2]: > 53 µM (inactive)

CC1C/C(=N\NC(=S)NCc2ccccc2)CC(C)(C)C1 (configuration not stated)
EC50 [3]: 6.08 µM (active) | EC50 (Streptokinase A): > 150 µM (not active) | EC50 (Streptococcus): 10.4 µM (active)

Cc1cc(C)c2c(SCc3ccc(Cl)cc3Cl)nc(N)nc2n1
AC50 (Cytochrome P450 2C19; read-out: AC50): 1 µM (inconclusive)

NC(=O)c1ccc(C2SCC(=O)N2Cc2ccccc2)cc1 (configuration not stated)
IC50 [1]: > 47.1 µM (inactive) | EC50 [2]: > 53 µM (inactive)

Cc1ccc(SC(C)C(=O)Nc2ccccc2C(=O)N2CCOCC2)cc1 (configuration not stated)
EC50 [4]: > 112 µM (not active) | EC50 [5]: > 112 µM (not active)
